In patent US9078429B2, “Method of cryopreserving stem cells” (The Governors of the University of Alberta, priority 2004, dated 2015):

Tested on: TF-1 cells
Assay: Post-thaw recovery of TF-1 cells by membrane integrity assay (SYTO 13/ethidium bromide) after cryopreservation
Format: cell-based, human
Details: TF-1 cells in 10% DMSO/RPMI, conventional cooling at a constant rate of 0.9° C./min, then liquid nitrogen, thawed
Description: FIG. 12. Membrane integrity of TF-1 cells in 10% DMSO cooled at 1° C./min to various subzero temperatures and then either thawed directly (upper curve) or cooled rapidly at 325° C./min in liquid nitrogen (lower curve) before being thawed.
TF-1 cells (ATCC, Manassas, Va.) were grown at 37° C. in 5% CO2 in RPMI 1640 Medium Modified (ATCC) with 10% fetal bovine serum (FBS) (ATCC), and supplemented with 2 ng/mL recombinant human GM-CSF (Stemcell Technologies, Vancouver, Canada). Cells were maintained between 0.1×10^6 and 1×10^6 cells/mL, according to ATCC guidelines. Prior to experiments, cells were washed twice with serum-free RPMI media and incubated overnight. […]
Cell viability was assessed by a membrane integrity assay. […]
The Syto/EB stain was prepared using 40 μL of 2.5 mM EB stock solution and 10 μL of 5 mM Syto® 13 stock solution mixed with 350 μL 1× phosphate-buffered saline (PBS). […] Fluorescent images were captured using a Leitz Dialux 22 fluorescence (440-480 nm) microscope (Leitz, Germany) fitted with a PIXERA DiRactor (Pixera Corporation, Los Gatos, Calif., USA) digital camera. The Viability Assessment Program (The Great Canadian Computer Company, Spruce Grove, Canada), which counts red versus green pixels was used to quantify cell membrane integrity from digital images (Jomha, 2003). […]

## C[S+](C)[O-] [DMSO, dimethyl sulfoxide]
  recovery (membrane integrity) after thawing: 63.7%
